Earlier results, collected in patent US20260273108A1, “USE OF ACRYLIC ACID-CONTAINING POLYMERS FOR MOLECULAR IMAGING OF TARGET PROTEINS” (The Johns Hopkins University, priority 2023, published 2026).
Where two headings read alike, the source gives them in different places. Marks after values point to notes of the source that are not given here.

Experiments:
[1] = bolus intravenous injection in humans
[2] = for Radio frequency: radiofrequency for saturation (CEST)
[3] = IV dose for rodents
[4] = water-exchanging protons at a pH of 7-7.4 and temperature of 36-67° C.

Row | SMILES | IV Dose [1] [mmol/kg] | Exchange rate kex [2, 4] | Radio frequency [2] | IV Dose [3] | Exchange rate kex ([2]; exchange rates for glucose, pH of 7-7.4 and temperature of 36-67° C.)
1 | Nc1ccc(C(=O)O)c(O)c1 [4-Aminosalicylate] | 2.33 | N/A, 1,200 s^−1 | – | – | –
2 | C[C@H](N)C(=O)O [Alanine] | 5.61 | 7,670 s^−1 | 3.0 ppm | – | –
3 | N=C(N)NCCC[C@H](N)C(=O)O [Arginine] | – | 1,200 s^−1 | 1.8-2.0 ppm | – | –
4 | O=C1CC(=O)NC(=O)N1 [Barbituric acid] | – | – | 5.0 ppm | 1.56* mmole/kg | –
5 | N[C@H]1C(O)O[C@H](CO)[C@@H](O)[C@@H]1O (stereo partly drawn) [Glucosamine] | 1.86 | – | 1.2 ppm | – | 2,900-14,000^# s^−1
6 | O=c1ccn([C@@H]2O[C@H](CO)[C@@H](O)[C@H]2O)c(=O)[nH]1 [Uridine] | 1.43 | 3080 s⁻¹ | 6.3-6.4 ppm | – | –
